The values below come from patent US6284746A (Chinoin, Ltd., priority 1993, dated 2001).

A short description of data set [1]: Solubility of taxol with soluble anionic-β-cyclodextrin polymer CDPSI (Example 4). It counts as physicochemical.
A short description of data set [2]: Solubilizing of taxol with HPBCD (Example 5). The format is physicochemical.
Source text: Taxol was solubilized and formulated with 2-hydroxypropylated β-cyclodextrin. (HPBCD).
For data set [3] the following is noted: cited from earlier work.
For data set [4] the following is noted: background statement; cited from earlier work.
The nature of data set [5]: physchem. Particulars: water.
Data set [6] in a line: physchem. To be noted: 40% aqueous dimethyl-beta-cyclodextrin.
Procedure: 11.6 mg of Taxol (Sigma Chemicals Co. USA) is treated in 10 ml of 40% aqueous heptakis-2,6-di-O-methylated β-cyclodextrin at room temperature for 30 minutes, until a solution of slight haze is obtained.
The nature of data set [7]: physchem. To be noted: pH 7.6.
Procedure: Randomly methylated β-cyclodextrin (average degree of substitution=1.8) was dissolved in physiological buffered saline (pH 7.6) at different concentrations and these solutions were incubated with the taxol substrate for 12 hours at room temperature. Each sample contained taxol in 5 mg/ml initial concentration. The suspensions after equilibration were membrane filtered and assayed for dissolved taxol by HPLC.
Data set [8] in a line: physchem.
Source text: The suspension was filtered and the dissolved taxol determined by HPLC.
The conditions of data set [9]: 25° C., 12 hours.

Molecules are shown by their SMILES. In brackets after ≈: the same amount, converted by molar mass.

Regarding `CC(=O)O[C@H]1C(=O)[C@@]2(C)[C@H]([C@H](OC(=O)c3ccccc3)[C@]3(O)C[C@H](OC(=O)[C@H](O)[C@@H](NC(=O)c4ccccc4)c4ccccc4)C(C)=C1C3(C)C)[C@]1(OC(C)=O)CO[C@@H]1C[C@@H]2O` (relative stereo) [taxol, [2aR-[2aα, 4β; 4αβ,6β,9α(αR*,βS*),11α-12α,12aα, 12bα]]-β-(Benzoylamino)-α-hydroxybenzene-propanoic acid 6,12-b-bis (acetyloxy)-12-(benzoyloxy)-2a,3,4,4a, 5,6,9,10,11,12,12a,12b-dodecahydro-4,11-dihyroxy-4a,8,13,13-tetramethyl-5-oxo-7,11-methano-1H-cyclodeca[3,4]-benz-[1,2-b]oxet-9-yl ester], the solubility in data set [1] (0% cdpsi, CDPSI 0%) was 0.6 µg/mL (≈ 0.703 µM); in [1] (1% cdpsi solution, CDPSI 1%) it was 1.8 µg/mL (≈ 2.11 µM); in data set [1] (5% cdpsi solution, CDPSI 5%), 3.5 µg/mL (≈ 4.1 µM); in data set [1] (10% cdpsi solution, CDPSI 10%) it was 10.6 µg/mL (≈ 12.4 µM); in data set [1] (40% cdpsi solution, CDPSI 40%) it was 56.8 µg/mL (≈ 66.5 µM); in data set [2] (0.5% hpbcd solution, HPBCD 0.5%), 1 µg/mL (≈ 1.17 µM). In addition, the solubility is 1.7 µg/mL (≈ 1.99 µM) in data set [2] (1% hpbcd solution, HPBCD 1%); 6.8 µg/mL (≈ 7.96 µM) in data set [2] (5% hpbcd solution, HPBCD 5%); 34.9 µg/mL (≈ 40.9 µM) in data set [2] (10% hpbcd solution, HPBCD 10%); 100 µg/mL (≈ 118 µM) in data set [2] (40% hpbcd solution, HPBCD 40%); 0.6 µg/mL (≈ 0.703 µM) in [2] (HPBCD none); 0.55 to 0.59 µg/mL (≈ 0.644 to 0.691 µM) in “physchem [5]”. The stability of taxol entry in data set [3] (Bartoli et al., background) is listed as “generally poor stability”. Moreover, the “sensitivity to light and pH” value in data set [3] (background statement) is “very sensitive to light and the pH”. The solubility of taxol in [3] (glycosyl- and maltosyl-β-cyclodextrins with ethanol and ethylacetate (Mikuni 1993)) is 20 to 110 µg/mL. The antitumor activity entry in data set [4] is “significant antitumor activity”. Also, the “products of decomposition, biological activity” value in data set [4] was “biologically inactive products are forming”. For the same compound, the solubility at 0.5 h in the data set “physchem [6]” is 992 to 1000 µg/mL (≈ 1160 to 1170 µM). Moreover, the solubility (thermodynamic) at 12 h was 4.4 µg/mL (≈ 5.15 µM) in the data set “physchem [7]” (1% rameb in buffered saline); 42.5 µg/mL (≈ 49.8 µM) in “physchem [7]” (5% rameb in buffered saline); 232 µg/mL (≈ 271 µM) in “physchem [7]” (10% rameb in buffered saline); 860 µg/mL (≈ 1010 µM) in the data set “physchem [7]” (40% rameb in buffered saline); 0.6 µg/mL (≈ 0.703 µM) in “physchem [7]” (buffered saline); 244 µg/mL (≈ 286 µM) in “physchem [8]” (10% aqueous succinyl-methyl-β-cyclodextrin). This compound also had a solubility (thermodynamic) at 12 h in “physchem [8]” (40% succinyl-methyl-β-cyclodextrin solution) of 993 µg/mL (≈ 1160 µM).

Consider `CC(=O)O[C@@]12CO[C@@H]1C[C@H](O)[C@@]1(C)C(=O)[C@H](O)C3=C(C)[C@@H](OC(=O)[C@H](O)[C@@H](NC(=O)OC(C)(C)C)c4ccccc4)C[C@@](O)([C@@H](OC(=O)c4ccccc4)[C@H]21)C3(C)C` [Taxotere, butoxycarbonyl-10-deacetyl-N-debenzoyl taxol], for which the “solubility enhancement relative to free taxol derivative in water” value in [9] came to 850 times.

One may read the solubility as how much of the substance goes into solution per volume. Low readings indicate a poorly soluble substance, high ones a readily soluble substance. As a reminder, the solubility (thermodynamic) is the concentration in solution at equilibrium with solid.
